Measurements from PubChem BioAssay AID1918944 (Molecular Pharmacology Branch, DTP, NCI, 2023).

Tested on: 786-0 complex spheroid viability
Test: Anticancer human tumor 786-0 cell line growth inhibition;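 note: spheroids exposed to agents for seven days before readout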
Conditions: for IC50: curve of first compound; for viability, T/C: stronger effect = lower value
How it was run: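 Multicellular complex spheroids of tumor cells with human endothelial cells (HUVEC) and mesenchymal stem cells; the LSD1 inhibitor iadademstat was combined with standard-of-care or investigational agents. Top concentration at or near clinical Cmax, half-log dilutions; final DMSO ≤0.25%.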

[1] = second compound 0.1 µM, first compound 0.0316 µM
[2] = second compound 0.1 µM, first compound 0.1 µM
[3] = second compound 0.1 µM, first compound 0.316 µM
[4] = second compound 0.1 µM, first compound 1 µM
[5] = second compound 0.316 µM, first compound 0.0316 µM
[6] = second compound 0.316 µM, first compound 0.1 µM
[7] = second compound 0.316 µM, first compound 0.316 µM
[8] = second compound 0.316 µM, first compound 1 µM
[9] = second compound 1 µM, first compound 0.0316 µM
[10] = second compound 1 µM, first compound 0.1 µM
[11] = second compound 1 µM, first compound 0.316 µM
[12] = second compound 1 µM, first compound 1 µM
[13] = second compound 3.16 µM, first compound 0.0316 µM
[14] = second compound 3.16 µM, first compound 0.1 µM
[15] = second compound 3.16 µM, first compound 0.316 µM
[16] = second compound 3.16 µM, first compound 1 µM
[17] = second compound 10 µM, first compound 0.0316 µM
[18] = second compound 10 µM, first compound 0.1 µM
[19] = second compound 10 µM, first compound 0.316 µM
[20] = second compound 10 µM, first compound 1 µM

Compound	IC50 (second compound 0.1 µM) [nM]	IC50 (second compound 0.316 µM) [nM]	IC50 (second compound 1 µM) [nM]	IC50 (second compound 3.16 µM) [nM]	IC50 (second compound 10 µM) [nM]	viability, T/C [1] [%]	viability, T/C [2] [%]	viability, T/C [3] [%]	viability, T/C [4] [%]	viability, T/C [5] [%]	viability, T/C [6] [%]	viability, T/C [7] [%]	viability, T/C [8] [%]	viability, T/C [9] [%]	viability, T/C [10] [%]	viability, T/C [11] [%]	viability, T/C [12] [%]	viability, T/C [13] [%]	viability, T/C [14] [%]	viability, T/C [15] [%]	other results
COc1ccc([C@@H](O)c2cc(-c3ncnc4cc(N5CCOCC5)ccc34)c(F)cc2Cl)nn1 + NC1CC1c1ccc(-c2cccc(O)c2)cc1	3590	4960	3760	2790	2200	98.2	100	96.2	79.2	108	110	102	86.9	101	92.9	93	80	90.1	93.7	88.2	viability, T/C (second compound 0.1 µM, first compound 3.16 µM): 52%; viability, T/C (second compound 0.1 µM, first compound 10 µM): 37%; viability, T/C (second compound 0.316 µM, first compound 3.16 µM): 56.2%; viability, T/C (second compound 0.316 µM, first compound 10 µM): 40%; viability, T/C (second compound 1 µM, first compound 3.16 µM): 51.7%; viability, T/C (second compound 1 µM, first compound 10 µM): 38%; viability, T/C [16]: 78.1%; viability, T/C (second compound 3.16 µM, first compound 3.16 µM): 46.3%; viability, T/C (second compound 3.16 µM, first compound 10 µM): 38.4%; viability, T/C [17]: 92.3%; viability, T/C [18]: 84.5%; viability, T/C [19]: 81.3%; viability, T/C [20]: 65.7%; viability, T/C (second compound 10 µM, first compound 3.16 µM): 41.8%; viability, T/C (second compound 10 µM, first compound 10 µM): 34.7%
O=C(C=Cn1cnc(-c2cc(C(F)(F)F)cc(C(F)(F)F)c2)n1)NNc1cnccn1 + NC1CCC(NC2CC2c2ccccc2)CC1	25.4	20.2	22.7	16.4	11.9	44.6	31.8	21	17.9	42.1	30.7	21.2	18.6	42.6	34.4	21.6	15.7	43.6	31.7	20.8	viability, T/C (second compound 0.1 µM, first compound 0.00316 µM): 94.3%; viability, T/C (second compound 0.1 µM, first compound 0.01 µM): 68.9%; viability, T/C (second compound 0.316 µM, first compound 0.00316 µM): 97.4%; viability, T/C (second compound 0.316 µM, first compound 0.01 µM): 61.9%; viability, T/C (second compound 1 µM, first compound 0.00316 µM): 90.8%; viability, T/C (second compound 1 µM, first compound 0.01 µM): 63.4%; viability, T/C (second compound 3.16 µM, first compound 0.00316 µM): 81%; viability, T/C (second compound 3.16 µM, first compound 0.01 µM): 51.6%; viability, T/C [16]: 14.9%; viability, T/C (second compound 10 µM, first compound 0.00316 µM): 74%; viability, T/C (second compound 10 µM, first compound 0.01 µM): 48.3%; viability, T/C [17]: 37.5%; viability, T/C [18]: 35.1%; viability, T/C [19]: 19.9%; viability, T/C [20]: 16.9%
